Test results as given in patent US8232403B2, “Bicyclic derivatives as CETP inhibitors” (Novartis AG, priority 2006, dated 2012).

Legend:
[1] = molecular target: T1, CETP (cholesteryl ester transfer protein) (Homo sapiens, UniProt P11597); assay: CETP inhibitory activity, IC50 in buffer; type: biochemical
T1 sequence (P11597 18-493): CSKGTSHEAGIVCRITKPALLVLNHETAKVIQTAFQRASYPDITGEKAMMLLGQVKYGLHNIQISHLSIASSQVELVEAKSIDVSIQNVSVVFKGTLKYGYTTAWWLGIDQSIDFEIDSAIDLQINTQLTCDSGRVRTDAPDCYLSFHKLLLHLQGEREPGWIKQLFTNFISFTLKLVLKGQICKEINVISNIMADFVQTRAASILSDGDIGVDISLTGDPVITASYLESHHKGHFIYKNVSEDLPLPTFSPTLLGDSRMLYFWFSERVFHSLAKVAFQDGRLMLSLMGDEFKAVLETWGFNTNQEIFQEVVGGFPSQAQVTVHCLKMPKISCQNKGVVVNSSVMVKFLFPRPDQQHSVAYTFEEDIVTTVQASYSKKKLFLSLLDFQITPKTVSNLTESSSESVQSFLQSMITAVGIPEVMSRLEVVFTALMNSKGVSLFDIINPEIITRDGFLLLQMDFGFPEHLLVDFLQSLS

[2] = molecular target: T1, CETP (cholesteryl ester transfer protein); assay: In vitro CETP activity assay in human plasma; type: biochemical; set-up: tissue New Drug Development Research Center, Inc; host or cells: human EDTA plasma from healthy men
Description: (1) Preparation of Human Pro-Apolipoprotein Al (pro-apoAl)
The cDNA of human pro-apoAl (NCBI accession number: NM_000039) is cloned from human liver Quick-Clone™ cDNA (Clontech, Calif.) and inserted to a pET28a vector (Novagen, Germany) for bacterial expression. Expressed protein as a fusion protein with 6×His-tag at N-terminus in BL-21 Gold (DE3) (Strategene, Calif.) is purified using HiTrap Chelating (GE Healthcare, Conn.).
(2) Preparation of Donor Microemulsion
Pro-apoAl containing microemulsion as a donor particle is prepared following previous reports (J. Biol. Chem., 280:14918-22). Glyceryl trioleate (62.5 ng, Sigma, Mo.), 3-sn-phosphatidylcholine (583 ng, Wako Pure Chemical Industries, Japan), and cholesteryl BODIPY® FL C12 (250 ng, Invitrogen, Calif.) are dissolved in 1 mL of chloroform. The solution is evaporated, then residual solvent is removed in vacuum for more than 1 hr. The dried lipid mixture is dissolved in 500 μL of the assay buffer (50 mM Tris-HCl (pH7.4) containing 150 mM NaCl and 2 mM EDTA) and sonicated at 50° C. with a microtip (MICROSON™ ULTRASONIC CELL DISRUPTOR, Misonix, Farmingdale, N.Y.) at output power 006 for 2 min. After sonication, the solution is cooled to 40° C., added to 100 μg of human pro-apoAl, and sonicated at output power 004 for 5 min at 40° C. The solution, BODIPY-CE microemulsion as a donor molecule is stored at 4° C. after filtration through a 0.45 μm PVDF filter.
(3) In Vitro CETP Activity Assay in Human Plasma
Human EDTA plasma samples from healthy men are purchased from New Drug Development Research Center, Inc. Donor solution is prepared by a dilution of donor microemulsion with assay buffer. Human plasma (50 μL), assay buffer (35 μL) and test compound dissolved in dimethylsulfoxide (1 μL) are added to each well of 96 well half area black flat bottom plate. The reaction is started by the addition of donor solution (14 μL) into each well. Fluorescence intensities are measured every 30 min at 37° C. with excitation wave length of 485 nm and emission wavelength of 535 nm. The CETP activity (Fl/min) is defined as the changes of fluorescence intensity from 30 to 90 min.

Row | SMILES | IC50 [1] | IC50 [2]
1 | CCN(CC1CCCC1)c1nc2ccccc2cc1CN(Cc1cc(C(F)(F)F)cc(C(F)(F)F)c1)c1nnn(C)n1 [Example 1, N-[(3-{N′-[3,5-bis(trifluoromethyl)benzyl]-N′-(2-methyl-2H-tetrazol-5-yl)amino}methyl)quinolin-2-yl]-N-(cyclopentylmethyl)ethylamine] | 0.16 µM | 0.26 µM
2 | CCN(CC1CCCC1)c1nc2cc(C)ccc2cc1CN(Cc1cc(C(F)(F)F)cc(C(F)(F)F)c1)c1nnn(C)n1 [Example 2-6] | 0.028 µM | 0.092 µM
3 | CCN(CC1CCCC1)c1nc2cc(OC)ccc2cc1CN(Cc1cc(C(F)(F)F)cc(C(F)(F)F)c1)c1nnn(C)n1 [Example 2-7] | 0.044 µM | 0.075 µM
4 | CCN(CC1CCCC1)c1nc2cc(F)c(F)cc2cc1CN(Cc1cc(C(F)(F)F)cc(C(F)(F)F)c1)c1nnn(C)n1 [Example 2-8] | 0.04 µM | 0.024 µM
5 | CCN(CC1CCCC1)c1nc2cc(F)c(F)c(F)c2cc1CN(Cc1cc(C(F)(F)F)cc(C(F)(F)F)c1)c1nnn(C)n1 [Example 2-10] | 0.036 µM | 0.037 µM
6 | CCN(CC1CCCCC1)c1nc2ccc(F)cc2cc1CN(Cc1cc(C(F)(F)F)cc(C(F)(F)F)c1)c1nnn(C)n1 [Example 2-12] | 0.12 µM | 0.094 µM
7 | CCN(CC1CCCCC1)c1nc2cc(F)ccc2cc1CN(Cc1cc(C(F)(F)F)cc(C(F)(F)F)c1)c1nnn(C)n1 [Example 2-13] | 0.032 µM | 0.082 µM

The next lines start with the values.

Row | IC50 [1] | IC50 [2] | SMILES
8 | 0.043 µM | 0.062 µM | CCN(CC1CCCCC1)c1nc2cc(F)c(F)cc2cc1CN(Cc1cc(C(F)(F)F)cc(C(F)(F)F)c1)c1nnn(C)n1 [Example 2-15]
9 | 0.25 µM | 0.22 µM | CCOC(=O)C[C@H]1CC[C@H](CN(CC)c2nc3ccccc3cc2CN(Cc2cc(C(F)(F)F)cc(C(F)(F)F)c2)c2nnn(C)n2)CC1 [Example 2-17]
10 | 0.16 µM | 0.03 µM | CCN(CC1CCOCC1)c1nc2cc(F)c(F)cc2cc1CN(Cc1cc(C(F)(F)F)cc(C(F)(F)F)c1)c1nnn(C)n1 [Example 2-22]
11 | 0.039 µM | 0.043 µM | Cn1nnc(N(Cc2cc(C(F)(F)F)cc(C(F)(F)F)c2)Cc2cc3ccc(F)cc3nc2N2CCCC2C2CCCCC2)n1 (stereo not shown) [Example 3-2]
12 | 0.06 µM | 0.062 µM | CCC(CC)[C@H]1CCCN1c1nc2cc(F)c(F)cc2cc1CN(Cc1cc(C(F)(F)F)cc(C(F)(F)F)c1)c1nnn(C)n1 [Example 3-4]
13 | 0.12 µM | 0.11 µM | CCOC[C@H]1CCCN1c1nc2cc(F)ccc2cc1CN(Cc1cc(C(F)(F)F)cc(C(F)(F)F)c1)c1nnn(C)n1 [Example 3-5]
14 | 0.054 µM | 0.039 µM | CCN(CC1CCCC1)c1nc2cc(C#N)ccc2cc1CN(Cc1cc(C(F)(F)F)cc(C(F)(F)F)c1)c1nnn(C)n1 [Example 6, 3-({N-[3,5-bis(trifluoromethyl)benzyl]-N-(2-methyl-2H-tetrazol-5-yl)amino}methyl)-2-[N′-(cyclopentylmethyl)-N′-ethylamino]quinoline-7-carbonitrile]
15 | 0.0058 µM | 0.033 µM | CCN(CC1CCCC1)c1nc2cc(F)cc(F)c2cc1CN(Cc1cc(C(F)(F)F)cc(C(F)(F)F)c1)c1ncc(N2CCOCC2)cn1 [Example 13-4]
16 | 0.021 µM | 0.045 µM | Cn1nnc(N(Cc2cc(C(F)(F)F)cc(C(F)(F)F)c2)Cc2cc3cc(F)c(F)cc3nc2N2CCC[C@@H]2[C@H]2CC[C@H](C(=O)O)CC2)n1 [Example 21, trans-4-{(R)-1-[3-({N-[3,5-bis(trifluoromethyl)benzyl]-N-(2-methyl-2H-tetrazol-5-yl)amino}methyl)-6,7-difluoroquinolin-2-yl]pyrrolidin-2-yl}cyclohexanecarboxylic acid]
17 | 0.025 µM | 0.039 µM | Cn1nnc(N(Cc2cc(C(F)(F)F)cc(C(F)(F)F)c2)Cc2cc3cc(F)c(F)cc3nc2N2CCC[C@@H]2[C@H]2CC[C@H](CC(=O)O)CC2)n1 [Example 28, trans-(4-{(R)-1-[3-({N-[3,5-bis(trifluoromethyl)benzyl]-N-(2-methyl-2H-tetrazol-5-yl)amino}methyl)-6,7-difluoroquinolin-2-yl]pyrrolidin-2-yl}cyclohexyl)acetic acid]
